From article PMC8213057, “Targeting ALK2: An Open Science Approach to Developing Therapeutics for the Treatment of Diffuse Intrinsic Pontine Glioma” (Journal of Medicinal Chemistry, 2020)
Values joined by “and” are separate entries in the source; they are usually repeats but may differ in a detail not shown here. Equal values may be shown once.

What was measured:
ALK6/BMPR1B = molecular target: T1, ALK6/BMPR1B (Homo sapiens, UniProt O00238); test: 375-member kinase panel; type: biochemical; conditions: Run 1, Run 2; for % enzyme activity: 1 μM; for remaining activity at 1 µM: read-out: % enzyme activity, 1 μM
T1 construct: purchased Reaction Biology Corporation

CDK3/cyclin E = CDK3/cyclin E (Homo sapiens, UniProt Q00526); conditions: 1 μM; Run 1, Run 2
CK1epsilon = CK1epsilon (Homo sapiens, UniProt P49674); conditions: 1 μM; Run 1, Run 2
EPHB2 = molecular target: T2, EPHB2 (Homo sapiens, UniProt P29323); conditions: 1 μM; Run 1, Run 2
T2 sequence (P29323 19-1055): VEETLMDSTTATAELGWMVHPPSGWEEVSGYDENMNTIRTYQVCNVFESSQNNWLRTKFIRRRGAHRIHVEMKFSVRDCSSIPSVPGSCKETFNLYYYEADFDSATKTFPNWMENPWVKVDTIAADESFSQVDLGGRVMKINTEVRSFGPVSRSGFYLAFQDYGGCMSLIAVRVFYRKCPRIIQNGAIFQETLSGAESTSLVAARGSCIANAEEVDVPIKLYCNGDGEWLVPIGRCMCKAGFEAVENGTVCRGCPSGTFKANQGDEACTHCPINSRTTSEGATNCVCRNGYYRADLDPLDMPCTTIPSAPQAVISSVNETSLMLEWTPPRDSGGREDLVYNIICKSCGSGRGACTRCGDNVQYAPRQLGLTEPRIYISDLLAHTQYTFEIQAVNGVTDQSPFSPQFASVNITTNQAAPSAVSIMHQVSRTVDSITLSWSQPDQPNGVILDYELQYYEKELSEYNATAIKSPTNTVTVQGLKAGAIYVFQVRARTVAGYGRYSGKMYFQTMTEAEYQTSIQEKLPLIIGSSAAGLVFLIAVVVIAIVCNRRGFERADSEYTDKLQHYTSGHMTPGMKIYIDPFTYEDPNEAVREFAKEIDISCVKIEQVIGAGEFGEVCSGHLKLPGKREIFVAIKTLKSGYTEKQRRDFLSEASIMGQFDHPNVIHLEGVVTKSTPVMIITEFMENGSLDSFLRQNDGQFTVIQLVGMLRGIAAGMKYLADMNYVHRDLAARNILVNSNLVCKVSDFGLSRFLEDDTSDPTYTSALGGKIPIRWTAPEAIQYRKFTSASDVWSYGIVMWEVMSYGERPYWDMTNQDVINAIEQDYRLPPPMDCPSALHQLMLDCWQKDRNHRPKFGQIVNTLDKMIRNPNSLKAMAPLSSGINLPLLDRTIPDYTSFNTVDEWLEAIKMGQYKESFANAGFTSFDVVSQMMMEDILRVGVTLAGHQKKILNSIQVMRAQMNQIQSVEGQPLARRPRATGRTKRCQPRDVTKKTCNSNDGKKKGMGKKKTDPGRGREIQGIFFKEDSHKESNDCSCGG

SRMS = SRMS (Homo sapiens, UniProt Q9H3Y6); conditions: 1 μM; Run 1, Run 2
TRKB = TRKB (Homo sapiens, UniProt Q16620); conditions: 1 μM; Run 1, Run 2
CAMK1d = CAMK1d (Homo sapiens, UniProt Q8IU85); test: biochemical; conditions: read-out: % enzyme activity, 1 μM; Run 1, Run 2
CHK2 = CHK2 (Homo sapiens, UniProt O96017); test: biochemical; conditions: read-out: % enzyme activity, 1 μM; Run 1, Run 2
ERK5/MAPK7 = ERK5/MAPK7 (Homo sapiens, UniProt Q13164); test: biochemical; conditions: read-out: % enzyme activity, 1 μM; Run 1, Run 2
MARK4 = molecular target: T3, MARK4 (Homo sapiens, UniProt Q96L34); test: biochemical; conditions: read-out: % enzyme activity, 1 μM; Run 1, Run 2
T3 sequence (Q96L34 1-752): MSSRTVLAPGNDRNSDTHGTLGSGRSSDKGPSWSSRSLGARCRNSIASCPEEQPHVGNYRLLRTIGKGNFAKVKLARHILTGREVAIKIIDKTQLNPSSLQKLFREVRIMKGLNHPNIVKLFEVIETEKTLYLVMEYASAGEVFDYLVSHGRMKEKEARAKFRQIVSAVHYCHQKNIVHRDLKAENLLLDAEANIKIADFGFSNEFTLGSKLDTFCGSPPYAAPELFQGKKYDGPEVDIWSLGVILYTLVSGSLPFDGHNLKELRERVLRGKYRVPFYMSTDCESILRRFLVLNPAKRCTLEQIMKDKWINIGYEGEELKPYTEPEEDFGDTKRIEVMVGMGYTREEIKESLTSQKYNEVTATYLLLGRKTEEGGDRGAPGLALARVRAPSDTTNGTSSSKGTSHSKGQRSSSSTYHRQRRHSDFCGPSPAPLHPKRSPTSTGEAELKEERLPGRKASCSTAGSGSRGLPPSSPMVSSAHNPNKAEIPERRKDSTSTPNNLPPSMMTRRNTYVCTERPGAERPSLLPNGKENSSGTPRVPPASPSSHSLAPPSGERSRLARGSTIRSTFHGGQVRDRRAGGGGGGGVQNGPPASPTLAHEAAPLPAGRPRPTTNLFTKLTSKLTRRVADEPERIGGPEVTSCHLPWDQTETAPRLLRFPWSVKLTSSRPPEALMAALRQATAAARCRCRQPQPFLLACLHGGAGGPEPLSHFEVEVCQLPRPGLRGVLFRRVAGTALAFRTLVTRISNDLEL

NEK3 = molecular target: T4, NEK3 (Homo sapiens, UniProt P51956); test: biochemical; conditions: read-out: % enzyme activity, 1 μM; Run 1, Run 2
T4 sequence (P51956 1-506): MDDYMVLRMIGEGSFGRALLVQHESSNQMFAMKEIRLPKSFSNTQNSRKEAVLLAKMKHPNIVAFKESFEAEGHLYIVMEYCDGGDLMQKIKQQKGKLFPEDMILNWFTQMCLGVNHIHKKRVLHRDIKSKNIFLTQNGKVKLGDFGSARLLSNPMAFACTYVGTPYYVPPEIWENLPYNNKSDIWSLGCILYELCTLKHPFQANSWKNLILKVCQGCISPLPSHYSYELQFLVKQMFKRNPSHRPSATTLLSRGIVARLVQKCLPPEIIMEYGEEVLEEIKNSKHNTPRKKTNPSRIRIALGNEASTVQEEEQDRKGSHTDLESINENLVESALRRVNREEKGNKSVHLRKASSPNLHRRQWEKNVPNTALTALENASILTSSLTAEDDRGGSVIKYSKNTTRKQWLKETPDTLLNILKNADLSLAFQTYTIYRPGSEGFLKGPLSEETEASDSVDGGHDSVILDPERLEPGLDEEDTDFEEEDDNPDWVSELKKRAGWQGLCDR

T1 sequence (O00238 14-502): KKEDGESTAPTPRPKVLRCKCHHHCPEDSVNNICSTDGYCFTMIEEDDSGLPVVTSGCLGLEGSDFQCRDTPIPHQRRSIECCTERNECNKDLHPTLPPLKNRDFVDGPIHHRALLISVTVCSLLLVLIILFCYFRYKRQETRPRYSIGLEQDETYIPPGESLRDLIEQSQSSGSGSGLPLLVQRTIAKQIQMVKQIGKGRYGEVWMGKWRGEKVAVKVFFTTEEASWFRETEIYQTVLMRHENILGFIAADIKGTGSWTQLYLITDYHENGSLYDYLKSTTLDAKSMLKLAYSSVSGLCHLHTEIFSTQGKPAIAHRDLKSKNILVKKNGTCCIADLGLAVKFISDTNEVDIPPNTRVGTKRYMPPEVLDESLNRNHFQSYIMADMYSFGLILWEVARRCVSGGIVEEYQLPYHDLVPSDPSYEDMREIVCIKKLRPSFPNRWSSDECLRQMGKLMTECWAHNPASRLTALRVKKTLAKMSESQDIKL
Chain of CDK3/cyclin E (Q00526 whole entry): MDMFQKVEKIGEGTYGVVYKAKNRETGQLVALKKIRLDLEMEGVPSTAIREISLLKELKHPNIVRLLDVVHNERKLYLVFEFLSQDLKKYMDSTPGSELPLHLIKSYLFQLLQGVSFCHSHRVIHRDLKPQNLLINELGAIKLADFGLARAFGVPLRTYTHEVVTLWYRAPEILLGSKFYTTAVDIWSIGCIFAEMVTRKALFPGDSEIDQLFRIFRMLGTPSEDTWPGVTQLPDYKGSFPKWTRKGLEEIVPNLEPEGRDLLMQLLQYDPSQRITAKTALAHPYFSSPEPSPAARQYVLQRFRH
Chain of CDK3/cyclin E (P24864 whole entry, further chain): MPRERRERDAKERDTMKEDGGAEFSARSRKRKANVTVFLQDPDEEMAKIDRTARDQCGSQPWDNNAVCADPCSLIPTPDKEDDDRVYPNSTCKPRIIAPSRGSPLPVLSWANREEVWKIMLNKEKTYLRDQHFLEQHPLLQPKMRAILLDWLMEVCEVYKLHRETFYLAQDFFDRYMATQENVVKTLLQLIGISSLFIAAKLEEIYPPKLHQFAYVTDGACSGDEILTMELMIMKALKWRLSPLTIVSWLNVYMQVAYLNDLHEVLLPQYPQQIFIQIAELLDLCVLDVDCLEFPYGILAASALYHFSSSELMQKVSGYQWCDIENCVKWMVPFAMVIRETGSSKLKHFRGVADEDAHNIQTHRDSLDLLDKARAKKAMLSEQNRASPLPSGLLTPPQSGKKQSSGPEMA
Chain of CAMK1d (Q8IU85 whole entry): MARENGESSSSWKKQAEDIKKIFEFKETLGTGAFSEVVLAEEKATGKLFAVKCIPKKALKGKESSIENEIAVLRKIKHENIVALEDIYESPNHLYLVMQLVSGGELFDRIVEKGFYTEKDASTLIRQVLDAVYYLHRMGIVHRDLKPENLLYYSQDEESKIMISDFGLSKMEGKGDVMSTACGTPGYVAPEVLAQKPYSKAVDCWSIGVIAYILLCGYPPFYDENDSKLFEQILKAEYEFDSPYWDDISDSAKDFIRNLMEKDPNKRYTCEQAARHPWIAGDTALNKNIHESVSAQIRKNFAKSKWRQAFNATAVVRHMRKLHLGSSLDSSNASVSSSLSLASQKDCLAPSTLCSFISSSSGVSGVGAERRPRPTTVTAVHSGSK
Chain of TRKB (Q16620 32-822): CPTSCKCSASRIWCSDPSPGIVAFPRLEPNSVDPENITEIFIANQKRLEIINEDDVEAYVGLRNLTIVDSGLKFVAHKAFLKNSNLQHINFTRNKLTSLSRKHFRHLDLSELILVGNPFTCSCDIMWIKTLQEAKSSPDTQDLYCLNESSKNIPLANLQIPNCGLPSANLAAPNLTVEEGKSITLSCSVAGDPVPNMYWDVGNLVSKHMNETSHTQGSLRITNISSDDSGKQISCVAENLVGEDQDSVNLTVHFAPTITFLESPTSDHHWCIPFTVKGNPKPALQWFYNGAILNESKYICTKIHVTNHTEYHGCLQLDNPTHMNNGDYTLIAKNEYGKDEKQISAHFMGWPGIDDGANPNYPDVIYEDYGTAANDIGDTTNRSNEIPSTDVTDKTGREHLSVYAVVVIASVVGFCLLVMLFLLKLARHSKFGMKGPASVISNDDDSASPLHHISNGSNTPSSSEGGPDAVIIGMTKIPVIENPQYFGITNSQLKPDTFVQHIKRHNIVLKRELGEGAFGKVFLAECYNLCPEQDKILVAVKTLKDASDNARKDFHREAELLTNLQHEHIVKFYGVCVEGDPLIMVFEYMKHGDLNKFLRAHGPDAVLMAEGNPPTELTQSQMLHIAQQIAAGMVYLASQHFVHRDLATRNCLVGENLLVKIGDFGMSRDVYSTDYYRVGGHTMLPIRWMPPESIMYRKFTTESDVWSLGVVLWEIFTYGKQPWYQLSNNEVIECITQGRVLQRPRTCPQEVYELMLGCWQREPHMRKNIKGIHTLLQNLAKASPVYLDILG
Chain of CHK2 (O96017 whole entry): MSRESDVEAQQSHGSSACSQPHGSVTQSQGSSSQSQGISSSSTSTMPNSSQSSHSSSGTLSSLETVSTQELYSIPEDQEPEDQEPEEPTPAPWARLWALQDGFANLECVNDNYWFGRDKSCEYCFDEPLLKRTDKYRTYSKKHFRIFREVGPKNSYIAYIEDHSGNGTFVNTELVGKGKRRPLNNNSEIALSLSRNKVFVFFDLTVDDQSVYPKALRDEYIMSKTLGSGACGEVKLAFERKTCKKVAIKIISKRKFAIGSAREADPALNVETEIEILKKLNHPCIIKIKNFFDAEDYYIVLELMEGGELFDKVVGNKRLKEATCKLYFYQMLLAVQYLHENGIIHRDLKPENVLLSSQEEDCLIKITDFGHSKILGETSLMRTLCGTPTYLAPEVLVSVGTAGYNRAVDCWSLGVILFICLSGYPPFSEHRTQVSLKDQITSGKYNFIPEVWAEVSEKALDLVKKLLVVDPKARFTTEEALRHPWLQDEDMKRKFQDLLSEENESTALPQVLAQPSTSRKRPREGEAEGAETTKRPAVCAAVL
Chain of SRMS (Q9H3Y6 whole entry): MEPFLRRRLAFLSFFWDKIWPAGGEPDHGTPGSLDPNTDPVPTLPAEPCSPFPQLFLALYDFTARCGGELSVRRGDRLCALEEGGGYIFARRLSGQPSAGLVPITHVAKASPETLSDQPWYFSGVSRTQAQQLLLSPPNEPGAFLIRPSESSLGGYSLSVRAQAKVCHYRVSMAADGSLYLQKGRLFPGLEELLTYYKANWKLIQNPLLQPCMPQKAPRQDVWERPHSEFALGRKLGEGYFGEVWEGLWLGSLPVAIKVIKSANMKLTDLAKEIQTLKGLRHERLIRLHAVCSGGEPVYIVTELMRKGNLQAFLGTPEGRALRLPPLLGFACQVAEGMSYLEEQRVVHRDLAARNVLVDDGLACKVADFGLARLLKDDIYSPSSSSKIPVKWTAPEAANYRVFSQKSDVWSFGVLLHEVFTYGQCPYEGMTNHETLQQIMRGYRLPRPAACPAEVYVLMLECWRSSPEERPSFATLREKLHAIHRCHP
Chain of CK1epsilon (P49674 whole entry): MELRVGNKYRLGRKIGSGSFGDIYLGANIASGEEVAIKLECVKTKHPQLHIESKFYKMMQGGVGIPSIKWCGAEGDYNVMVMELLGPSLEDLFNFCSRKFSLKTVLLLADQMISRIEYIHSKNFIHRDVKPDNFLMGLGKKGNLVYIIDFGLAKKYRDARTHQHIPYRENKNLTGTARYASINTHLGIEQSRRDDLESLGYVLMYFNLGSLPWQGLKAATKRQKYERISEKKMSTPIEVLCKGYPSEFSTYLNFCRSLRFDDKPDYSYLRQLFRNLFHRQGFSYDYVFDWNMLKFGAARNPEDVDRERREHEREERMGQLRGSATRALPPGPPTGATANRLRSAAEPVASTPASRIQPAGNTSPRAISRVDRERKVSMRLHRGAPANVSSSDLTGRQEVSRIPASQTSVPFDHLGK
Chain of ERK5/MAPK7 (Q13164 whole entry): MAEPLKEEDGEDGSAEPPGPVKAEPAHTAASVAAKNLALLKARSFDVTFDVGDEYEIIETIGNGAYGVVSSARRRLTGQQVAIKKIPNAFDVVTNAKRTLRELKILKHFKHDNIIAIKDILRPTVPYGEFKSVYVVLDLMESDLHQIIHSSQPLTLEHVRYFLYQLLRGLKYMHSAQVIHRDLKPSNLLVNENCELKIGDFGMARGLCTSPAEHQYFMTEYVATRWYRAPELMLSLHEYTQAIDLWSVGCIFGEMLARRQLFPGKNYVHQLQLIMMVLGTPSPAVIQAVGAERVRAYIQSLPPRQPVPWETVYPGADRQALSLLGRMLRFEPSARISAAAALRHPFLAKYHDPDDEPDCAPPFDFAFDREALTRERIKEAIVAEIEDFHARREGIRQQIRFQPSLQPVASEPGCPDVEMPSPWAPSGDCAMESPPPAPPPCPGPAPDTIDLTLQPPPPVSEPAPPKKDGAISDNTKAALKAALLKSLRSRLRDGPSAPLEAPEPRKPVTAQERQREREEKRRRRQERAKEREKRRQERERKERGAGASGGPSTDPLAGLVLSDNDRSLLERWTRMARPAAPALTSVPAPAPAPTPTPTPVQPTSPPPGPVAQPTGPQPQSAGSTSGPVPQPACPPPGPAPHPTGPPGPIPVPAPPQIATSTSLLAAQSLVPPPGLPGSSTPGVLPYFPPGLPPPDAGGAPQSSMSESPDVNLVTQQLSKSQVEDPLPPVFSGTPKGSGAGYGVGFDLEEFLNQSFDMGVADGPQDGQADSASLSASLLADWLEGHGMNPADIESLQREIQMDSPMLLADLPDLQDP

COc1cc(-c2cncc(-c3ccc(N4CCN(C)CC4)cc3)c2C)cc(F)c1C(N)=O [Compound 26a, 2-Fluoro-6-methoxy-4-(4-methyl-5-(4-(4-methylpiperazin-1-yl)phenyl)pyridin-3-yl)benzamide]
CYP inhibition (CYP2B6): > 50 µM
% enzyme activity at 1 μM (FMS): 82.2% and 75.7%
% enzyme activity (ALK6/BMPR1B): 17.03%
remaining activity at 1 µM (ALK6/BMPR1B): 18.2%
% enzyme activity (CDK3/cyclin E): 81.63%
% enzyme activity (CK1epsilon): 93.07%
% enzyme activity (EPHB2): 92.89%
% enzyme activity (SRMS): 95.09%
% enzyme activity (TRKB): 99.94%
remaining activity at 1 µM (CAMK1d): 98.5%
remaining activity at 1 µM (CHK2): 99.7%
remaining activity at 1 µM (ERK5/MAPK7): 96.5%
remaining activity at 1 µM (MARK4): 83.7%
remaining activity at 1 µM (NEK3): 88.3%

COc1cc(-c2cncc(-c3ccc(N4C[C@@H](C)N(C)[C@@H](C)C4)cc3)c2C)cc(F)c1C(N)=O [Compound 26c, 2-Fluoro-6-methoxy-4-(4-methyl-5-(4-((3R,5S)-3,4,5-trimethylpiperazin-1-yl)phenyl)pyridin-3-yl)benzamide]
CYP inhibition (CYP2B6): > 50 µM
% enzyme activity at 1 μM (FMS): 79.5% and 78.8%
% enzyme activity (ALK6/BMPR1B): 30.06%
remaining activity at 1 µM (ALK6/BMPR1B): 30.2%
% enzyme activity (CDK3/cyclin E): 78.38%
% enzyme activity (CK1epsilon): 90.08%
% enzyme activity (EPHB2): 97.40%
% enzyme activity (SRMS): 95.91%
% enzyme activity (TRKB): 98.44%
remaining activity at 1 µM (CAMK1d): 99.9%
remaining activity at 1 µM (CHK2): 102%
remaining activity at 1 µM (ERK5/MAPK7): 101%
remaining activity at 1 µM (MARK4): 96.8%
remaining activity at 1 µM (NEK3): 96.2%
